# Legend:
# Assay type in all cases: cell-based, human
# MEXF 276 = assay: Colony outgrowth assay, patient-derived melanoma xenograft cells; set-up: key to Response to vinblastine: BAL27862-sensitive tumour cells were those that had IC70 values in the low nanomolar range; BAL27862-resistant tumour cells had IC70 values >600 nanomolar; conditions: MEXF 276, ex vivo colony outgrowth
# Description: (§1) Single cell suspensions of patient-derived tumour xenografts (maintained in nude mice) were prepared. For colony outgrowth assays, cells were plated in soft agar in 24-well plates according to the assay introduced by Hamburger & Salmon (Primary bioassay of human tumour stem cells, Science, 1977, 197:461-463). 2×10^4-6×10^4 cells in 0.2 mL medium containing 0.4% agar were plated out on a bottom layer of 0.75% agar. Test compounds were applied in 0.2 mL culture medium. Every 24-well plate contained untreated controls and samples in triplicates. Cultures were incubated at 37° C. and 7.5% CO2 for 5-28 days. 24 hours prior to analysis, vital colonies were stained with a solution of metabolizable tetrazolium salt (Alley M C et al, Life Sci. 1982, 31:3071-3078) and were counted with an automatic image analysis system (Omnicon 3600, Biosys GmbH).
# (§2) Relative drug effects were expressed by the ratio of the mean number of colonies in the treated wells and the control wells. IC70-values were determined by plotting compound concentrations versus relative colony counts.
# (§3) Based on colony outgrowth assays, using tumour cells derived from 8 patient-derived tumours maintained as xenografts in mice, BAL27862-sensitive or resistant tumour cells were identified from gastric cancer, colorectal cancer, melanoma, and lung cancer (see Table 1). In this table, BAL27862-sensitive tumour cells were those that had IC70 values in the low nanomolar range, while BAL27862-resistant tumour cells had IC70 values >600 nanomolar. Paclitaxel and vinblastine data, using the same ex vivo assay, was available for 7 of the 8 tumour models. Of these 7 models, all were resistant to treatment with paclitaxel, while 6 were sensitive to treatment with vinblastine.
# GFX 97 = assay: Colony outgrowth assay, patient-derived gastric tumour xenograft cells; set-up: key to Response to vinblastine: BAL27862-sensitive tumour cells were those that had IC70 values in the low nanomolar range; BAL27862-resistant tumour cells had IC70 values >600 nanomolar; conditions: GFX 97, ex vivo colony outgrowth
# Description: as §1, §2, §3
# MEXF 1341 = assay: Colony outgrowth assay, patient-derived melanoma xenograft cells; set-up: key to Response to BAL27862 / Response to vinblastine: BAL27862-sensitive tumour cells were those that had IC70 values in the low nanomolar range; BAL27862-resistant tumour cells had IC70 values >600 nanomolar; conditions: MEXF 1341, ex vivo colony outgrowth
# Description: as §1, §2, §3
# GFX 251 = assay: Colony outgrowth assay, patient-derived gastric tumour xenograft cells; set-up: key to Response to vinblastine / Response to BAL27862: BAL27862-sensitive tumour cells were those that had IC70 values in the low nanomolar range; BAL27862-resistant tumour cells had IC70 values >600 nanomolar; conditions: GFX 251, ex vivo colony outgrowth
# Description: as §1, §2, §3
# CXF 243 = assay: Colony outgrowth assay, patient-derived colorectal cancer xenograft cells; set-up: key to Response to vinblastine: BAL27862-sensitive tumour cells were those that had IC70 values in the low nanomolar range; BAL27862-resistant tumour cells had IC70 values >600 nanomolar; conditions: CXF 243, ex vivo colony outgrowth
# Description: as §1, §2, §3
# LXFE 211 = assay: Colony outgrowth assay, patient-derived lung tumour xenograft cells; set-up: key to Response to BAL27862 / Response to vinblastine: BAL27862-sensitive tumour cells were those that had IC70 values in the low nanomolar range; BAL27862-resistant tumour cells had IC70 values >600 nanomolar; conditions: LXFE 211, ex vivo colony outgrowth
# Description: as §1, §2, §3
# CXF 1103 = assay: Colony outgrowth assay, patient-derived colorectal cancer xenograft cells; set-up: key to Response to BAL27862: BAL27862-sensitive tumour cells were those that had IC70 values in the low nanomolar range; BAL27862-resistant tumour cells had IC70 values >600 nanomolar; conditions: CXF 1103, ex vivo colony outgrowth
# Description: as §1, §2, §3
# A549 NSCLC cells = assay: Immunofluorescent staining of microtubules (anti-alpha-tubulin) in cultured cells; conditions: for Effect on microtubule phenotype induced by BAL27862: 24 hours BAL27862 with the final 4 hours including the agent; for Microtubule phenotype of mitotic or G2/M arrested cells: 24 hours treatment
# Description: (§4) A549 human non-small cell lung cancer (NSCLC, ATCC reference number CCL-185) cells, HeLa cervical cancer cells (ATCC reference number CCL-2) and SKBR3 breast carcinoma cells (ATCC reference number HTB-30) were seeded at densities of 50% on round microscope coverslips and cultured for 24 hours in RPMI-1640 containing 10% FCS (also referred to as FBS) at 37° C., 5% CO2. Compounds to be tested were dissolved in DMSO. The cell culture medium was replaced with medium containing the diluted compound(s) (paclitaxel, vinblastine, colchicine and nocodazole were purchased from Sigma-Aldrich) or vehicle. After treatment for the times indicated in the Brief Description of the Figures, coverslips were washed and cells were fixed in methanol/acetone (1:1) for 5 minutes at room temperature and subsequently incubated in blocking buffer (0.5% BSA and 0.1% TX-100 in PBS) for 30 minutes at room temperature. Specimens were then incubated with anti-alpha-tubulin antibody (Sigma, 1:2000) for 1 hour at room temperature in blocking buffer. After several washing steps cells were incubated with AlexaFluor-488 goat-anti-mouse IgG (Molecular Probes, 1:3000) for 1 hour at room temperature followed by several washing steps with blocking buffer. Specimens were then mounted with ProLong Gold antifade (Molecular Probes), sealed with nail polish and examined with a Leica immunofluorescence microscope. Images were captured with a cooled CCD-camera and processed by ImageJ software.
# LXFE 397 = assay: Colony outgrowth assay, patient-derived lung tumour xenograft cells; conditions: LXFE 397, ex vivo colony outgrowth
# Description: as §1, §2
# Based on colony outgrowth assays, using tumour cells derived from 8 patient-derived tumours maintained as xenografts in mice, BAL27862-sensitive or resistant tumour cells were identified from gastric cancer, colorectal cancer, melanoma, and lung cancer (see Table 1). […]
# [1] = system: HeLa cervical cancer cells; assay: Immunofluorescent staining of microtubules (anti-alpha-tubulin) in cultured cells; conditions: 50 nM, 24 hours treatment
# Description: as §4
# [2] = system: SKBR3 breast cancer cells; assay: as above; conditions: SKBR3, 50 nM, 24 hours treatment
# Description: as §4
smiles,measurement,setting,value
"CC(=O)O[C@H]1C(=O)[C@@]2(C)[C@H]([C@H](OC(=O)c3ccccc3)[C@]3(O)C[C@H](OC(=O)[C@H](O)[C@@H](NC(=O)c4ccccc4)c4ccccc4)C(C)=C1C3(C)C)[C@]1(OC(C)=O)CO[C@@H]1C[C@@H]2O [paclitaxel, reference compound]",Response to paclitaxel,MEXF 276,resistant (BAL27862-resistant tumour cells had IC70 values >600 nanomolar)
same,Response to paclitaxel,GFX 97,resistant (BAL27862-resistant tumour cells had IC70 values >600 nanomolar)
same,Response to paclitaxel,MEXF 1341,resistant (BAL27862-resistant tumour cells had IC70 values >600 nanomolar)
same,Response to paclitaxel,GFX 251,resistant (BAL27862-resistant tumour cells had IC70 values >600 nanomolar)
same,Response to paclitaxel,CXF 243,resistant (BAL27862-resistant tumour cells had IC70 values >600 nanomolar)
same,Response to paclitaxel,LXFE 211,resistant (BAL27862-resistant tumour cells had IC70 values >600 nanomolar)
same,Response to paclitaxel,CXF 1103,resistant (BAL27862-resistant tumour cells had IC70 values >600 nanomolar)
same,Effect on microtubule phenotype induced by BAL27862,A549 NSCLC cells; A549,no impact
"N#CCCNc1nonc1-c1nc2ccccc2n1CC(=O)c1ccc(N)cc1 [BAL27862, 3-(4-{1-[2-(4-Amino-phenyl)-2-oxo-ethyl]-1H-benzoimidazol-2-yl}-furazan-3-ylamino)-propionitrile]",IC70 BAL27862,MEXF 276,>3500 nM
same,Response to BAL27862,MEXF 276,resistant (BAL27862-resistant tumour cells had IC70 values >600 nanomolar)
same,IC70 BAL27862,GFX 97,>3500 nM
same,Response to BAL27862,GFX 97,resistant (BAL27862-resistant tumour cells had IC70 values >600 nanomolar)
same,IC70 BAL27862,MEXF 1341,25 nM
same,Response to BAL27862,MEXF 1341,sensitive
same,IC70 BAL27862,GFX 251,485 nM
same,Response to BAL27862,GFX 251,sensitive
same,IC70 BAL27862,CXF 243,696 nM
same,Response to BAL27862,CXF 243,resistant (BAL27862-resistant tumour cells had IC70 values >600 nanomolar)
same,IC70 BAL27862,LXFE 397,>3500 nM
same,Response to BAL27862,LXFE 397,resistant (BAL27862-resistant tumour cells had IC70 values >600 nanomolar)
same,IC70 BAL27862,LXFE 211,21 nM
same,Response to BAL27862,LXFE 211,sensitive
same,IC70 BAL27862,CXF 1103,22 nM
same,Response to BAL27862,CXF 1103,sensitive
same,Microtubule phenotype of mitotic or G2/M arrested cells,[1],dot-like structures
same,Microtubule phenotype of mitotic or G2/M arrested cells,[2],dot-like structures
same,Microtubule phenotype of mitotic or G2/M arrested cells,"A549 NSCLC cells; A549, 50 nM",dot-like structures
same,Effect on microtubule phenotype induced by conventional microtubule targeting agents,"A549 NSCLC cells; A549, 24 hours vinblastine, colchicine, paclitaxel or nocodazole with the final 4 hours including BAL27862",disruption of the microtubule structures
"COc1cc2c(c(OC)c1OC)-c1ccc(OC)c(=O)cc1[C@@H](NC(C)=O)CC2 [colchicine, reference compound]",Effect on microtubule phenotype induced by BAL27862,A549 NSCLC cells; A549,no impact
"N#CCCNc1nonc1-c1nc2ccccc2n1CC(=O)c1ccc(N)nc1 [Compound C, 3-(4-{1-[2-(6-Amino-pyridin-3-yl)-2-oxo-ethyl]-1H-benzoimidazol-2-yl}-furazan-3-ylamino)-propionitrile]",Microtubule phenotype of mitotic or G2/M arrested cells,"A549 NSCLC cells; A549, 20 nM",dot-like structures
"Nc1ccc(C(=O)Cn2c(-c3nonc3N)nc3ccccc32)cc1 [Compound B, 2-[2-(4-Amino-furazan-3-yl)-benzoimidazol-1-yl]-1-(4-amino-phenyl)-ethanone]",Microtubule phenotype of mitotic or G2/M arrested cells,"A549 NSCLC cells; A549, 80 nM",dot-like structures
"COC(=O)Nc1nc2ccc(C(=O)c3cccs3)cc2[nH]1 [nocodazole, reference compound]",Effect on microtubule phenotype induced by BAL27862,A549 NSCLC cells; A549,no impact
"CC[C@]1(O)C[C@@H]2CN(CCc3c([nH]c4ccccc34)[C@@](C(=O)OC)(c3cc4c(cc3OC)N(C)[C@H]3[C@@](O)(C(=O)OC)[C@H](OC(C)=O)[C@]5(CC)C=CCN6CC[C@]43[C@@H]65)C2)C1 [vinblastine, reference compound]",Response to vinblastine,MEXF 276,sensitive
same,Response to vinblastine,GFX 97,sensitive
same,Response to vinblastine,MEXF 1341,sensitive
same,Response to vinblastine,GFX 251,sensitive
same,Response to vinblastine,CXF 243,sensitive
same,Response to vinblastine,LXFE 211,sensitive
same,Response to vinblastine,CXF 1103,resistant (BAL27862-resistant tumour cells had IC70 values >600 nanomolar)
same,Effect on microtubule phenotype induced by BAL27862,A549 NSCLC cells; A549,no impact
